Experiments:
[1] = known ability; cited from earlier work
P-glycoprotein = assay: Functionality of the P-glycoprotein: passage of rhodamine 123 with or without Zosuquidar, primary murine devices; format: in vitro ADME, mouse
Description: This functionality test is carried out with rhodamine 123, because it is known that this molecule as a substrate for the P-glycoprotein is expelled by the P-glycoprotein into the luminal compartment, which thus limits its passage through the device. The culture media are replenished: 1 mL in the abluminal compartment and 250 μL in the luminal compartment either containing or not containing the Zosuquidar inhibitor of P-glycoprotein P at 5 μM (Dantzig et al. 1996). The devices are incubated for 2 hrs in the incubator. Then, 250 μL of medium containing 2 μM rhodamine 123 with or without 5 μM Zosuquidar are added into the luminal compartment and incubated for 1 hr in the incubator. […] The reading of the fluorescence intensity is done on the same apparatus as for the permeability test (described above). The λex of the rhodamine is 500 nm and the λem is 524 nm.
Indeed it is known that rhodamine 123 as a substrate for glycoprotein P is expelled by the glycoprotein P into the luminal compartment, which limits the passage thereof through the device. Zosuquidar is an inhibitor of P-glycoprotein, therefore its use should limit the efflux of rhodamine 123 into the luminal compartment.
As in Example 4, the passage of rhodamine 123 in the presence or absence of Zosuquidar was studied.

P-gp efflux pump = assay: Functionality of P-glycoprotein on murine devices with immortalised cell lines
P-gp glycoprotein = assay: Functionality of P-glycoprotein in the commercially available device (Rhodamine 123 with or without Zosuquidar); format: in vitro ADME, rat; conditions: commercially available model
Description: Here again, the functionality of the commercially available model was evaluated by studying the passage of Rhodamine 123 in the presence or absence of the specific inhibitor of the P-gp glycoprotein, Zosuquidar.

O=C1CN=C(c2ccccn2)c2cc(Br)ccc2N1 [BROMO, Bromazepam]
Passage through the HEB [1]: +

NCCc1ccc(O)c(O)c1 [DA, Dopamine]
Passage through the HEB [1]: −

Clc1ccc(C(c2ccccc2Cl)C(Cl)Cl)cc1 (centres unmarked) [MITO, Mitotane]
Passage through the HEB [1]: −

OC[C@H]1O[C@@](CO)(O[C@H]2O[C@H](CO)[C@@H](O)[C@H](O)[C@H]2O)[C@@H](O)[C@@H]1O [SUC, Sucrose]
Passage through the HEB [1]: +

O[C@@H](COc1cccc2ncccc12)CN1CCN([C@@H]2c3ccccc3[C@@H]3[C@H](c4ccccc42)C3(F)F)CC1 [Zosuquidar]
inhibition of the efflux (of rhodamine 123) by the specific P-glycoprotein inhibitor (P-glycoprotein; 5 μM Zosuquidar, device WT): 57.3%
effect on P-gp functionality (P-glycoprotein; 24- and 96-well format devices): inhibited
effect of the specific Glycoprotein P inhibitor (P-gp efflux pump; all the formats): does not show any effect
effect of Zosuquidar on Rhodamine 123 passage (P-gp glycoprotein): no effect
Passage through the HEB [1]: −

rhodamine 123
passage of Rhodamine123 to the luminal side after addition into the abluminal compartment (P-glycoprotein; 24- and 96-well format devices): comparable to cell-free HEBs
passage of Rhodamine123 to the abluminal side (P-glycoprotein; 24- and 96-well format devices, added luminal): passes very little on to the abluminal side
decrease of the passage of rhodamine 123 to the abluminal compartment as compared to the device without cells (P-glycoprotein; device WT, 1 hr incubation): 72.6%
limitation of the passage of Rhodamine 123 on the abluminal side (P-gp efflux pump; 12-, 24-, and 96 well plate formats): more than 60%
efflux of Rhodamine123 (P-gp glycoprotein; regardless of the side where it is deposited): 97%
